What was measured:
LFA-1 = LFA-1 (Homo sapiens, UniProt P05107+P20701); test: ELISA-type plate binding assay, LFA-1
Experimental: (§1) To address this hypothesis, an ELISA-type binding assay was developed in which neutrophil ligands (LFA-1 and MAC-1/CR3) and […] cell ligands (ICAM-1/CD54 and ICAM-2/CD102) were bound to microtiter plates. Plates were then incubated with increasing amounts of PA-dPEG24 in 1% gelatin/PBS buffer probed with antibody to the peptide and developed.
(§2) To ascertain if PA-dPEG24 could bind ICAM-1 and LFA-1 in plasma, these receptors were coated onto microtiter plates and then incubated with human plasma containing increasing amounts of PA-dPEG24, probed with antibody to the peptide and then developed.

ICAM-2/CD102 = ICAM-2/CD102 (Homo sapiens, UniProt P13598); test: ELISA-type plate binding assay, ICAM-2; settings: 1% gelatin/PBS buffer
ICAM-2/CD102, sequence (P13598 25-275): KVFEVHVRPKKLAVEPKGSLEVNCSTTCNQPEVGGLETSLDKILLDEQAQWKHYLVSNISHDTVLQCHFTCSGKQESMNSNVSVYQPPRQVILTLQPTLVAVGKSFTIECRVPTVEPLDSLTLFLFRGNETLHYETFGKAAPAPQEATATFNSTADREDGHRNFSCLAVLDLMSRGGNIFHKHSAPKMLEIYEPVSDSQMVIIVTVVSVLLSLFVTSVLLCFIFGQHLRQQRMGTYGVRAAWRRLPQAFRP
Experimental: as §1

MPO (myeloperoxidase) = MPO (myeloperoxidase) (Homo sapiens, UniProt P05164); test: ELISA-type plate binding assay, MPO (positive control ligand); settings: in human plasma
MPO (myeloperoxidase), sequence (P05164 49-745, species assumed): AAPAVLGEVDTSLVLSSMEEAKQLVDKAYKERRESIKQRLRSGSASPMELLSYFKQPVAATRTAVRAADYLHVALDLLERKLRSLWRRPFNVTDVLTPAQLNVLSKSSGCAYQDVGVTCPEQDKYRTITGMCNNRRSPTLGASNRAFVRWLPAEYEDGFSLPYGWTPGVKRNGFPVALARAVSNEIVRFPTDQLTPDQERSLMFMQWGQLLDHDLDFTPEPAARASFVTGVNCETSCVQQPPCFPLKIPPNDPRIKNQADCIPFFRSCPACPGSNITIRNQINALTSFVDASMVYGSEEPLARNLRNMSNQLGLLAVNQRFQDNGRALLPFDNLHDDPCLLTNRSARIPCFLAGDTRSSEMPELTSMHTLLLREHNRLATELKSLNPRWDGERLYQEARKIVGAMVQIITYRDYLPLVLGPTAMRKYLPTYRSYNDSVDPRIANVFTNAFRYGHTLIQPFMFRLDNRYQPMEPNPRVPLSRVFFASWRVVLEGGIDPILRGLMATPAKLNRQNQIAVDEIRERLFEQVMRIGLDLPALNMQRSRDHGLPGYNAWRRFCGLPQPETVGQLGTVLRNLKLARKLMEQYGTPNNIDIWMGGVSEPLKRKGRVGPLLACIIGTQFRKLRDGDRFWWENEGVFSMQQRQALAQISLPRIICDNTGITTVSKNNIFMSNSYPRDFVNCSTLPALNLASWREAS

[1] = test system: classical complement pathway mediated hemolysis; test: Free hemoglobin in plasma (intravascular hemolysis), two-hit ALI rat model; type: in vivo; settings: 10 mg/kg IV; compared with saline treatment
Experimental: Complement inhibition in the bloodstream of rats in the 2-hit ALI model was measured by two different methods. The first method measured free hemoglobin in the plasma of the rats over time, by measuring intravascular hemolysis of the transfused incompatible erythrocytes.

MAC-1/CR3 = MAC-1/CR3 (Homo sapiens, UniProt P05107+P11215); test: ELISA-type plate binding assay, MAC-1; settings: 1% gelatin/PBS buffer
MAC-1/CR3, sequence (P05107 23-769, other chains not shown): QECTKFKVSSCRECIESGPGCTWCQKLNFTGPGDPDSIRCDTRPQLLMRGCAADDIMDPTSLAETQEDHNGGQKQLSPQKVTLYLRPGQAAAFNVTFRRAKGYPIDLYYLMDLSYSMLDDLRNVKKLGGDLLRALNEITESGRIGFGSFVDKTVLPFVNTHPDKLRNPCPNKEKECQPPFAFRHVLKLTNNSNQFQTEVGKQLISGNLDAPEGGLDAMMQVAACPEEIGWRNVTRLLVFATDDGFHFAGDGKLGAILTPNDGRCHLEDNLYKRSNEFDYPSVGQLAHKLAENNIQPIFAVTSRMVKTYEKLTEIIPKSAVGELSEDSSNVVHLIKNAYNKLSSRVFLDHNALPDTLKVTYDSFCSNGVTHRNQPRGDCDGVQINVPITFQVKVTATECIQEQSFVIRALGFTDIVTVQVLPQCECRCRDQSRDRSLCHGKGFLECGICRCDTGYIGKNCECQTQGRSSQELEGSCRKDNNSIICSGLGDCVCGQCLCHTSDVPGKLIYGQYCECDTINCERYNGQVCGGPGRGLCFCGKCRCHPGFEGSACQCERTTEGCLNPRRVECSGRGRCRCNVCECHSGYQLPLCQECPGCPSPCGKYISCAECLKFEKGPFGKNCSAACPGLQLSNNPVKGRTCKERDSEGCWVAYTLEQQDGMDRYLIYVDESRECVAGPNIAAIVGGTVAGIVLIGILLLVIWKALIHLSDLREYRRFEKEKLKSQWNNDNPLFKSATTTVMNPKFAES
Experimental: as §1

ICAM-5 = ICAM-5 (Homo sapiens, UniProt Q9UMF0); test: ELISA-type plate binding assay, ICAM-5; settings: buffer
ICAM-5, sequence (Q9UMF0 32-924): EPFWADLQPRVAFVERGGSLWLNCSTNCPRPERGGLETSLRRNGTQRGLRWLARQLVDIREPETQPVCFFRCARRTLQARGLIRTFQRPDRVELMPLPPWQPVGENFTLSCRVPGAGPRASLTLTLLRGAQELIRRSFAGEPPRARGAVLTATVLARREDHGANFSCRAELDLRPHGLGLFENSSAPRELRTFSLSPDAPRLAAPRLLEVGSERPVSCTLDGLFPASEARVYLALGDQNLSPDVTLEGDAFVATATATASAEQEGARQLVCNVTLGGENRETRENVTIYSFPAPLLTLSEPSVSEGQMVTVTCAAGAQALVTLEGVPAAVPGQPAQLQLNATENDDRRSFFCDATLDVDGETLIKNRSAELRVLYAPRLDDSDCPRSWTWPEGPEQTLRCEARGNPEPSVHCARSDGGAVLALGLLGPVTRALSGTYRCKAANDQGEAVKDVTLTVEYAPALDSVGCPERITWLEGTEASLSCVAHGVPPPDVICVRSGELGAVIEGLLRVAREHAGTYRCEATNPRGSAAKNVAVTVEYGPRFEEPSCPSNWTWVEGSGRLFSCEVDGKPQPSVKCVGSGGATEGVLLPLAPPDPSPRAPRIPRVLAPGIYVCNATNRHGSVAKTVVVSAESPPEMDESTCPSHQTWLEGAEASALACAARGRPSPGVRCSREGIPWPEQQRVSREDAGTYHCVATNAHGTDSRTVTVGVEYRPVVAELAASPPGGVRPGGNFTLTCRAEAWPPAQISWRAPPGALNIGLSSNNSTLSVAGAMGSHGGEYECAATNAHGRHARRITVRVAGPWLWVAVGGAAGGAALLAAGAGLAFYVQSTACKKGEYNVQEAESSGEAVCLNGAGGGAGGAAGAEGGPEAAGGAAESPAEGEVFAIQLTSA

free DNA = test: OVA/LPS rat asthma model, free DNA in BALF (PicoGreen); settings: prophylactic or rescue 160 mg/kg IV; vs asthma rats Days 22-24; not back to baseline
two-hit ALI model = test: Lung histology (H&E) and ImageJ lung injury score in two-hit ALI rat model; type: in vivo
Experimental: The inventors' previously developed two-hit ALI model is initiated by infusion of LPS (first hit) into Wistar rats followed 30 minutes later with transfusion of 30% incompatible erythrocytes (second hit) and sacrifice of the animals 4 hours later. […] Lungs were isolated from animals four hours after the second hit and tissues evaluated by H&E staining.
To determine the level of lung tissue protection by RLS-0071 in this model, grading of H&E sections for cell wall thickening for the different treatment groups was performed. Images of randomized microscopy fields were converted to black and white and quantified by ImageJ (NIH) analysis. The ratio of black to white pixels was then determined as a measure of lung damage: as lung damage increased, the alveolar walls thickened, shrinking the alveolar space (white space), resulting in a decrease in white pixels and increase in black pixels.

human neutrophils = test: Immunofluorescence binding to purified human neutrophils; type: cell-based; settings: 1 mM, 30 minutes
Experimental: To evaluate binding of PA-dPEG24 to neutrophils, purified human neutrophils were cytospun onto glass slides. PA-dPEG24 (1 mM) was then added to one set of slides for 30 minutes and the slides were subsequently washed with PBS. The cells were then incubated with an antibody to PA-dPEG24 (1:1,000 dilution of Chicken Anti-PIC1) followed by a labeled secondary antibody (1:2,000 dilution of Anti-Chicken, Alexa Fluor 488) and counterstained with DAPI. Cells were then visualized by microscopy. In each case, DAPI staining confirmed that the cells were present on the slides and intact.

rat eye = test: Intravitreal safety study, slit lamp examination with modified MacDonald-Shadduck Ocular Grading; type: in vivo; set-up: key to Conjunctiva pathology score / Anterior Chamber pathology score / Iris pathology score / Cornea pathology score: 0: no pathology; 1: slight pathology; 2: moderate pathology; 3/4: severe pathology; settings: for Anterior Chamber pathology score / Conjunctiva pathology score / Cornea pathology score / Iris pathology score: rats 1-4
Experimental: Safety study. […] A saline control was administered to the left eye. For this procedure, animals were anesthetized with isoflurane and also received the topical anesthetic proparacaine. Additionally, animals received the topical antibiotic tobramycin after injection. Slit lamp examinations were performed at the indicated time points up to 72 hours post-injection and pathology graded using a modified MacDonald-Shadduck Ocular Grading system with the following scoring scale: 0, no pathology; 1, slight pathology; 2, moderate pathology; 3/4, severe pathology.

C1q = C1q (Homo sapiens, UniProt P02745+P02746+P02747); test: ELISA-type plate binding assay, C1q (positive control ligand)
C1q, sequence (P02745 23-245): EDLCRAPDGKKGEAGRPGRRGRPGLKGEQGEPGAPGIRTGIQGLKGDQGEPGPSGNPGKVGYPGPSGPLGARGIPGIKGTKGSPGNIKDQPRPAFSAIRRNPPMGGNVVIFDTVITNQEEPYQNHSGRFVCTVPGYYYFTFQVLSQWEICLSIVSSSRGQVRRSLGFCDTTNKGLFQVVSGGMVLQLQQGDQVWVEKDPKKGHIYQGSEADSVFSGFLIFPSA
C1q, sequence (P02746 28-253): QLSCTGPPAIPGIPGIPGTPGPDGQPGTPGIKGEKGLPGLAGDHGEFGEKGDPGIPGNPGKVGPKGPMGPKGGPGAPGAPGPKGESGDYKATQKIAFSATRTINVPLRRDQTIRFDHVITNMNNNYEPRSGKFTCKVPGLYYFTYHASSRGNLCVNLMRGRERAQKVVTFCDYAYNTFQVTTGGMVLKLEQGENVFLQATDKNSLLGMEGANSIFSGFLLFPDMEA
C1q, sequence (P02747 29-245): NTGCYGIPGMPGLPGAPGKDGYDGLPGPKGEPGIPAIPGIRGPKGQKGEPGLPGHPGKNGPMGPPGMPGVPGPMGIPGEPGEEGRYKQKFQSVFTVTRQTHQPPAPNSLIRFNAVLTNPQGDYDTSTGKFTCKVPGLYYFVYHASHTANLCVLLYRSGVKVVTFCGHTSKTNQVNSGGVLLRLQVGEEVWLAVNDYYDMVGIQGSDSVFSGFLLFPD

ICAM-1/CD54 = ICAM-1/CD54 (Homo sapiens, UniProt P05362); test: ELISA-type plate binding assay, ICAM-1
ICAM-1/CD54, sequence (P05362 28-532): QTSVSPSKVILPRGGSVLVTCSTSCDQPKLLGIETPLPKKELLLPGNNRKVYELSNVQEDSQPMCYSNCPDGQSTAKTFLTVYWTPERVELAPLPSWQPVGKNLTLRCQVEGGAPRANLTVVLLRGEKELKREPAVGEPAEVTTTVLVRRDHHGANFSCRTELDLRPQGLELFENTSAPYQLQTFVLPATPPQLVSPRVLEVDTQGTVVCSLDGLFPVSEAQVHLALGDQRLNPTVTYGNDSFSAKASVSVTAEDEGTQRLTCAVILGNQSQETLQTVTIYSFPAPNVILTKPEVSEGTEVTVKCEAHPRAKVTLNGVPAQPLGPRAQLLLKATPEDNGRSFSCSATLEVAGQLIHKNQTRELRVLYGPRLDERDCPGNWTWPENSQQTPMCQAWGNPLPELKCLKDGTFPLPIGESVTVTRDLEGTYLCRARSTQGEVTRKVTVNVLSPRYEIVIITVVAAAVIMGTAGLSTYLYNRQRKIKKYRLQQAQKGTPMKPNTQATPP
Experimental: as §1, §2

[2] = bolus IV 400 mg/kg; four hours after infusion; male Wistar rats
[3] = test system: human umbilical vascular endothelial cell (HUVEC); test: HUVEC 3-dimensional culture, LPS-stimulated non-VEGF mediated angiogenesis; settings: increasing amounts of peptide; 10 ug/ml LPS; 18 hours
mCH50 = mCH50 ex vivo on plasma of two-hit ALI rats; type: in vivo, rat; settings: 10 mg/kg IV; compared with saline treated control
[4] = test system: inflammatory cytokines and chemokines; test: Plasma cytokine and chemokine levels by xMAP bead-based immunoassay in two-hit ALI rat model; type: in vivo
[5] = 30 min after IVT 160 mg/ml in 5 microliters
[6] = 2 hour after IVT 160 mg/ml in 5 microliters
[7] = 24 hour after IVT 160 mg/ml in 5 microliters
[8] = 48 hour after IVT 160 mg/ml in 5 microliters
[9] = 72 hour after IVT 160 mg/ml in 5 microliters
[10] = Pre-IVT (baseline), eye assigned to RLS-0071

LFA-1, sequence (P20701 26-1170): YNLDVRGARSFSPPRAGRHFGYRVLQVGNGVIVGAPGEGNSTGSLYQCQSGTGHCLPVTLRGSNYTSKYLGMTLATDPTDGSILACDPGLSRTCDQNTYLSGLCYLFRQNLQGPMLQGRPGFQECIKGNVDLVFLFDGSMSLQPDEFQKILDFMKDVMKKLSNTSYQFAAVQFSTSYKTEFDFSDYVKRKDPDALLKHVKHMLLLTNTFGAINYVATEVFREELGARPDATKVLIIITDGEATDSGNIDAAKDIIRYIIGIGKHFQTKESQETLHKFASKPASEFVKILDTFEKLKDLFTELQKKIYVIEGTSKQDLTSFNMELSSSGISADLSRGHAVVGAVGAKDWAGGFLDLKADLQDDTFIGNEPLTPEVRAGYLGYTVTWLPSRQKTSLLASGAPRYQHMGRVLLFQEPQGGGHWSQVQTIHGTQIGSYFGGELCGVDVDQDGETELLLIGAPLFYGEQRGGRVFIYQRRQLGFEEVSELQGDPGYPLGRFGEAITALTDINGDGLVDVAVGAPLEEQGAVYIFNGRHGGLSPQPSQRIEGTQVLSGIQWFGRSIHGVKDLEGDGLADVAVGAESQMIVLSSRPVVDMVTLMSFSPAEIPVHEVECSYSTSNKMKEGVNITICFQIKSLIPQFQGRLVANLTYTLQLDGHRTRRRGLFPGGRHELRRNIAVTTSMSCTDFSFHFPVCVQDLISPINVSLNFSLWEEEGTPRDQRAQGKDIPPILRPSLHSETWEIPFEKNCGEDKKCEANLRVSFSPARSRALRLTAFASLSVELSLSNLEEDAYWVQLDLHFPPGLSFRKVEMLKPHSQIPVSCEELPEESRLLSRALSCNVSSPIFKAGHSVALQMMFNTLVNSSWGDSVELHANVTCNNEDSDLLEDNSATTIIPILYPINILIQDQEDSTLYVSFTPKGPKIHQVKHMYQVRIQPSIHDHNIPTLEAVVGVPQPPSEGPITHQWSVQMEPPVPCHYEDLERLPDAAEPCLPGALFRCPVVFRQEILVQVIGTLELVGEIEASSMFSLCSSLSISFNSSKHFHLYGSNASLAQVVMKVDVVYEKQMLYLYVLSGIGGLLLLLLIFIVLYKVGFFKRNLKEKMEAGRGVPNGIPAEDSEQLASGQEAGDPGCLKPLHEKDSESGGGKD
LFA-1, sequence (P05107 23-769): as the sequence (P05107 23-769, other chains not shown) above

SMILES: CC[C@H](C)[C@H](N)C(=O)N[C@@H](C)C(=O)N[C@@H](CC(C)C)C(=O)N[C@H](C(=O)N[C@@H](CC(C)C)C(=O)N[C@@H](CCC(=O)O)C(=O)N1CCC[C@H]1C(=O)N[C@H](C(=O)N[C@@H](CS)C(=O)N[C@@H](CS)C(=O)N[C@@H](CCC(N)=O)C(=O)N[C@@H](CCC(=O)O)C(=O)N[C@@H](CCCNC(=N)N)C(=O)N[C@@H](C)C(=O)N[C@@H](C)C(=O)NCCOCCOCCOCCOCCOCCOCCOCCOCCOCCOCCOCCOCCOCCOCCOCCOCCOCCOCCOCCOCCOCCOCCOCCOCCC(=O)O)[C@@H](C)CC)[C@@H](C)CC [RLS-0071]
- binding to LFA-1 (LFA-1; 1% gelatin/PBS buffer): bound dose-dependently
- binding to LFA-1 (LFA-1; in human plasma): bound dose-dependently
- binding to ICAM-2 (ICAM-2/CD102): but not ICAM-2
- binding to MPO (MPO (myeloperoxidase)): bound PA-dPEG24 in a dose-dependent manner
- inhibition of intravascular hemolysis (free hemoglobin in plasma) [1]: no inhibition of classical complement pathway mediated hemolysis
- binding to MAC-1 (MAC-1/CR3): but not MAC-1
- binding to ICAM-5 (ICAM-5): superior binding to ICAM-5
- free DNA in the BALF (free DNA): a decrease in free DNA was observed
- lung injury score (ratio of black to white pixels) (two-hit ALI model; 10 mg/kg prophylactic dose, p=0.002 vs untreated 2-hit animals): significant reduction in lung damage
- lung injury score (ratio of black to white pixels) (two-hit ALI model; 40 mg/kg prophylactic dose, p<0.001 vs untreated 2-hit animals): this effect was enhanced
- lung damage by H&E histology (two-hit ALI model; prophylactic 10, 40 or 160 mg/kg 2 minutes before incompatible erythrocyte transfusion, lungs 4 h after second hit): marked reduction in lung damage
- lung tissue architecture by H&E histology (two-hit ALI model; rescue 40 mg/kg at 0.5, 60, 90, 120 and 180 min after second hit): lung tissue architecture resembling that of sham animals
- lung injury score (ratio of black to white pixels) (two-hit ALI model; rescue 40 mg/kg at 0.5, 60, 90, 120 and 180 minutes after erythrocyte transfusion, all p<0.001): significant reduction in lung damage
- binding to neutrophil cell surface (immunofluorescence) (human neutrophils): fluorescence signal demonstrating direct binding of the peptide to the cell surface
- ocular toxicity by slit lamp after intravitreal injection (rat eye; 160 mg/kg (maximal deliverable dose) as printed, all 4 animals, up to 72 hours): No RLS-0071 related toxicity was observed
- Anterior Chamber pathology score (rat eye; [5]): 0
- Conjunctiva pathology score (rat eye; [5]): 0
- Cornea pathology score (rat eye; [5]): 0
- Iris pathology score (rat eye; [5]): 0
- Anterior Chamber pathology score (rat eye; [6]): 0
- Conjunctiva pathology score (rat eye; [6]): 0
- Cornea pathology score (rat eye; [6]): 0
- Iris pathology score (rat eye; [6]): 0
- Anterior Chamber pathology score (rat eye; [7]): 0
- Conjunctiva pathology score (rat eye; [7]): 0
- Cornea pathology score (rat eye; [7]): 0
- Iris pathology score (rat eye; [7]): 0
- Anterior Chamber pathology score (rat eye; [8]): 0
- Conjunctiva pathology score (rat eye; [8]): 0
- Cornea pathology score (rat eye; [8]): 0
- Iris pathology score (rat eye; [8]): 0
- Anterior Chamber pathology score (rat eye; [9]): 0
- Conjunctiva pathology score (rat eye; [9]): 0
- Cornea pathology score (rat eye; [9]): 0
- Iris pathology score (rat eye; [9]): 0
- Anterior Chamber pathology score (rat eye; [10]): 0
- Conjunctiva pathology score (rat eye; [10]): 0
- Cornea pathology score (rat eye; [10]): 0
- Iris pathology score (rat eye; [10]): 0
- binding to C1q (C1q; 1% gelatin/PBS buffer): bound PA-dPEG24 in a dose-dependent manner
- binding to C1q (C1q; in human plasma): bound PA-dPEG24 in a dose-dependent manner
- binding to ICAM-1 (ICAM-1/CD54; 1% gelatin/PBS buffer): bound endothelial receptor ICAM-1
- binding to ICAM-1 (ICAM-1/CD54; in human plasma): bound dose-dependently
- staining for peptide in kidney tissue [2]: dark staining on the glomerulus and tubules
- staining for peptide in liver tissue [2]: discrete staining
- angiogenesis (sprouting and tube formation) [3]: dose-dependent reduction in angiogenesis
- inhibition of mCH50 (mCH50): did not inhibit mCH50
- levels of anti-inflammatory Th2 cytokine IL-4 ([4]; 10 or 160 mg/kg before or 40 or 160 mg/kg after transfusion, FIG. 3): did not significantly decrease
- other cytokine and growth factor levels (EGF, LIX, VEGF, Leptin, GRO, Fractalkine, GM-CSF, Eotaxin, G-CSF) ([4]; 10 or 160 mg/kg before or 40 or 160 mg/kg after transfusion, FIG. 4): either significant reduction or a trend toward reduced levels
- cytokine levels IL-5, IL-18, IL-1alpha, IL-13, IL-17, IL-12, IP-10 ([4]; 10 or 160 mg/kg before or 40 or 160 mg/kg after transfusion, terminal blood plasma, FIG. 2): either significant pro-inflammatory cytokine reduction or a trend toward reduced levels
- VEGF level in 2-hit rat acute lung injury model ([4]; FIG. 4): downregulate VEGF
- pro-inflammatory cytokines (IL-1a, IL-1b, IL-6, IFN-g, IL-17, IL-18, TNFa, RANTES) and chemokines (MCP-1, MIP-1a, MIP-2) ([4]; prophylactic 10 or 160 mg/kg, rescue 40 or 160 mg/kg, terminal 4-hour time point, vs untreated 2-hit animals, some significant): reduced levels of cytokines and chemokines
- cytokine levels IFNgamma, IL-6, IL-2, IL-10, TNFalpha, MCP-1, RANTES, MIP1alpha, IL-1beta, MIP-2 ([4]; single dose 10 or 160 mg/kg before or 40 or 160 mg/kg after transfusion, terminal blood plasma, FIG. 1): either significant pro-inflammatory cytokine reduction or a trend toward reduced levels
